Reference: ChEMBL document CHEMBL5506037, “Synthesis of Heterocyclic Ring-Fused Bisnoralcohol Derivatives as Novel Small-Molecule Antiosteoporosis Agents” (J Med Chem, 2024)
The source made the active and inactive calls. The rule behind the calls is not given here.

Tests used:
BMMC [1] = experiment: Anti-osteoclastogenesis activity in M-CSF/RANKL-induced C57BL/6J mouse BMMC cells assessed as reduction in TRAP mRNA expression at 0.05 to 5 uM measured after 2 days by RT-qPCR analysis; type: functional, cell-based; conditions: dose 0.05-5 µM, time 2.0 day
BMMC [2] = experiment: Anti-osteoclastogenesis activity in M-CSF/RANKL-induced C57BL/6J mouse BMMC cells assessed as inhibition of CTSK gene expression by RNA sequencing analysis; type: functional, cell-based
[3] = Terminal elimination half life in ICR mouse at 1 mg/kg, iv measured upto 24 hrs by LC-MS/MS analysis; type: ADME, organism-based; conditions: in vivo, read-out: beta t1/2 (converted)
[4] = AUC (0 to infinity) in ICR mouse at 10 mg/kg, po measured upto 24 hrs by LC-MS/MS analysis; type: ADME, organism-based; conditions: in vivo
BMMC [5] = experiment: Anti-osteoclastogenesis activity in M-CSF/RANKL-induced C57BL/6J mouse BMMC cells assessed as inhibition of osteoclast differentiation at late stage at 0.1 uM measured after 5 to 7 days by TRAP staining based analysis relative to control; type: functional; conditions: time 5-7 day
Mus musculus [6] = experiment: Anti-osteoporosis activity in ovariectomized C57BL/6 mouse assessed as prevention of bone loss by measuring recovery of trabecular thickness in femur at 0.2 to 0.6 mg/kg, ip administered every day for 6 weeks by 3D-imaging analysis; type: functional, organism-based; conditions: dose 0.2-0.6 mg/kg
[7] = Cmax in ICR mouse at 10 mg/kg, po measured upto 24 hrs by LC-MS/MS analysis; type: ADME, organism-based; conditions: in vivo
BMMC [8] = experiment: Anti-osteoclastogenesis activity in M-CSF/RANKL-induced C57BL/6J mouse BMMC cells assessed as inhibition of osteoclast differentiation at mid-stage at 0.1 uM measured after 3 to 5 days by TRAP staining based analysis relative to control; type: functional; conditions: time 3-5 day
BMMC [9] = experiment: Anti-osteoclastogenesis activity in M-CSF/RANKL-induced C57BL/6J mouse BMMC cells assessed as inhibition of FOS gene expression by RNA sequencing analysis; type: functional, cell-based
BMMC [10] = experiment: Anti-osteoclastogenesis activity in M-CSF/RANKL-induced C57BL/6J mouse BMMC cells assessed as reduction in MMP9 protein expression measured after 3 days by Western blot analysis; type: functional, cell-based; conditions: dose 0.05-5 µM, time 3.0 day
BMMC [11] = experiment: Potency index, ratio of bisnoralcohol IC50 to test compound IC50 for anti-osteoclastogenesis activity in M-CSF/RANKL-induced C57BL/6J mouse BMMC cells assessed as inhibition of osteoclast differentiation incubated for 7 days by TRAP staining based analysis; type: functional; conditions: time 7 day
Mus musculus [12] = experiment: Anti-osteoporosis activity in ovariectomized C57BL/6 mouse assessed as prevention of bone loss by measuring recovery of trabecular number in femur at 0.6 mg/kg, ip administered every day for 6 weeks by 3D-imaging analysis relative to control; type: functional
BMMC [13] = experiment: Anti-osteoclastogenesis activity in M-CSF/RANKL-induced C57BL/6J mouse BMMC cells assessed as inhibition of Fosl1 gene expression by RNA sequencing analysis; type: functional, cell-based
[14] = Tmax in ICR mouse at 10 mg/kg, po measured upto 24 hrs by LC-MS/MS analysis; type: ADME, organism-based; conditions: in vivo
[15] = Total plasma clearance in ICR mouse at 1 mg/kg, iv measured upto 24 hrs by LC-MS/MS analysis; type: ADME, organism-based
BMMC [16] = experiment: Anti-osteoclastogenesis activity in M-CSF/RANKL-induced C57BL/6J mouse BMMC cells assessed as inhibition of Traf6 gene expression by RNA sequencing analysis; type: functional, cell-based
BMMC [17] = experiment: Anti-osteoclastogenesis activity in M-CSF/RANKL-induced C57BL/6J mouse BMMC cells assessed as reduction in c-Fos protein expression measured after 3 days by Western blot analysis; type: functional, cell-based; conditions: dose 0.05-5 µM, time 3.0 day
BMMC [18] = experiment: Anti-osteoclastogenesis activity in M-CSF/RANKL-induced C57BL/6J mouse BMMC cells assessed as inhibition of lilra5 gene expression by RNA sequencing analysis; type: functional, cell-based
BMMC [19] = experiment: Anti-osteoclastogenesis activity in M-CSF/RANKL-induced C57BL/6J mouse BMMC cells assessed as inhibition of MMP9 gene expression by RNA sequencing analysis; type: functional, cell-based
BMMC [20] = experiment: Anti-osteoclastogenesis activity in M-CSF/RANKL-induced C57BL/6J mouse BMMC cells assessed as inhibition of osteoclast differentiation at 0.1 uM incubated for 7 days by TRAP staining based analysis relative to control; type: functional; conditions: 168 h, time 7 day
[21] = Cmax in ICR mouse at 1 mg/kg, iv measured upto 24 hrs by LC-MS/MS analysis; type: ADME, organism-based; conditions: in vivo
Mus musculus [22] = experiment: Anti-osteoporosis activity in ovariectomized C57BL/6 mouse assessed as prevention of bone loss by measuring reduction in osteoclast formation at 0.6 mg/kg, ip administered every day for 6 weeks by H and E staining based analysis; type: functional, organism-based
BMMC [23] = experiment: Anti-osteoclastogenesis activity in M-CSF/RANKL-induced C57BL/6J mouse BMMC cells assessed as inhibition of osteoclast differentiation incubated for 7 days by TRAP staining based analysis; type: functional, cell-based; conditions: 168 h
[24] = AUC (0 to infinity) in ICR mouse at 1 mg/kg, iv measured upto 24 hrs by LC-MS/MS analysis; type: ADME, organism-based; conditions: in vivo
[25] = Apparent volume of distribution in ICR mouse at 1 mg/kg, iv measured upto 24 hrs by LC-MS/MS analysis; type: ADME, organism-based; conditions: in vivo, read-out: Vz
BMMC [26] = experiment: Anti-osteoclastogenesis activity in M-CSF/RANKL-induced C57BL/6J mouse BMMC cells assessed as reduction in TRAF6 mRNA expression at 0.05 to 5 uM measured after 2 days by RT-qPCR analysis; type: functional, cell-based; conditions: dose 0.05-5 µM, time 2.0 day
BMMC [27] = experiment: Anti-osteoclastogenesis activity in M-CSF/RANKL-induced C57BL/6J mouse BMMC cells assessed as reduction in c-Fos mRNA expression at 0.05 to 5 uM measured after 2 days by RT-qPCR analysis; type: functional, cell-based; conditions: dose 0.05-5 µM, time 2.0 day
BMMC [28] = experiment: Anti-osteoclastogenesis activity in M-CSF/RANKL-induced C57BL/6J mouse BMMC cells assessed as inhibition of Acp5 gene expression by RNA sequencing analysis; type: functional, cell-based
BMMC [29] = experiment: Anti-osteoclastogenesis activity in M-CSF/RANKL-induced C57BL/6J mouse BMMC cells assessed as inhibition of Il1b gene expression by RNA sequencing analysis; type: functional, cell-based
BMMC [30] = experiment: Anti-osteoclastogenesis activity in M-CSF/RANKL-induced C57BL/6J mouse BMMC cells assessed as reduction in TRAP protein expression measured after 3 days by Western blot analysis; type: functional, cell-based; conditions: dose 0.05-5 µM, time 3.0 day
BMMC [31] = experiment: Anti-osteoclastogenesis activity in M-CSF/RANKL-induced C57BL/6J mouse BMMC cells assessed as inhibition of osteoclast differentiation at early stage at 0.1 uM measured after 1 to 3 days by TRAP staining based analysis relative to control; type: functional; conditions: time 1-3 day
BMMC [32] = experiment: Anti-osteoclastogenesis activity in M-CSF/RANKL-induced C57BL/6J mouse BMMC cells assessed as reduction in size and amount of osteoclasts by measuring reduction in TRAP-positive multinucleated cells incubated for 7 days by TRAP staining based analysis; type: functional, cell-based; conditions: dose 0.05-0.5 µM, time 7.0 day
[33] = Terminal elimination half life in ICR mouse at 10 mg/kg, po measured upto 24 hrs by LC-MS/MS analysis; type: ADME, organism-based; conditions: in vivo, read-out: beta t1/2 (converted)

CCNC(=O)[C@@H](C)[C@H]1CC[C@H]2[C@@H]3CC=C4C(C)(C)c5nnsc5C[C@]4(C)[C@H]3CC[C@]12C
Activity (BMMC [1]): Active
Activity (BMMC [2]): Active
half-life [3]: 106 min
AUC(0-inf) [4]: 688 ng·h/mL
inhibition at 0.1 µM (BMMC [5]): 10.9%
Activity (Mus musculus [6]): inactive
Cmax [7]: 230 ng/mL
inhibition at 0.1 µM (BMMC [8]): 40.2%
Activity (BMMC [9]): Active
Activity (BMMC [10]): Dose-Dependent Effect
Ratio IC50 (BMMC [11]): 45
Activity (Mus musculus [12]): 48.64%
Activity (BMMC [13]): Active
Tmax [14]: 40.2 min
clearance [15]: 31.7 mL/min/kg
Activity (BMMC [16]): Active
Activity (BMMC [17]): Dose-Dependent Effect
Activity (BMMC [18]): Active
Activity (BMMC [19]): Active
inhibition at 0.1 µM (BMMC [20]): 82.8%
Cmax [21]: 484 ng/mL
Activity (Mus musculus [22]): Active
IC50 (BMMC [23]): 52 nM
AUC(0-inf) [24]: 526 ng·h/mL
Vd [25]: 4.85 L/kg
Activity (BMMC [26]): Active
Activity (BMMC [27]): Active
Activity (BMMC [28]): Active
Activity (BMMC [29]): Active
Activity (BMMC [30]): Dose-Dependent Effect
inhibition at 0.1 µM (BMMC [31]): 73.1%
Activity (BMMC [32]): Dose-Dependent Effect
half-life [33]: 107 min
